Measurements as given in US11319321B2, “[1,2,4]triazolo[1,5-a]pyrimidine compounds as PDE2 inhibitors” (Janssen Pharmaceutica NV, priority 2016, dated 2022).
Like-named read-outs stand apart in the source and are kept apart here.

Tests used:
[1] = molecular target: T1, Human recombinant PDE2A (hPDE2A) (Homo sapiens, UniProt O00408); test: In vitro assay PDE2A (SPA, 3H-cGMP); type: biochemical
T1 construct: made in house; host or cells: Sf9 insect cells (baculovirus)
Procedure: Human recombinant PDE2A (hPDE2A) was expressed in Sf9 cells using a recombinant rPDE10A baculovirus construct. Cells were harvested after 48 h of infection and the hPDE2A protein was purified by metal chelate chromatography on Ni-sepharose 6FF. Tested compounds were dissolved and diluted in 100% DMSO to a concentration 100 fold of the final concentration in the assay. Compound dilutions (0.4 μl) were added in 384 well plates to 20 μl of incubation buffer (50 mM Tris pH 7.8, 8.3 mM MgCl2, 1.7 mM EGTA). 10 μl of hPDE2A enzyme in incubation buffer was added and the reaction was started by addition of 10 μl substrate to a final concentration of 10 μM cGMP and 0.01 μCi ^3H-cGMP. The reaction was incubated for 45 minutes at room temperature. […] After sedimentation of the beads during 30 minutes the radioactivity was measured in a Perkin Elmer Topcount scintillation counter and results were expressed as cpm. For blanc values the enzyme was omitted from the reaction and replaced by incubation buffer. Control values were obtained by addition of a final concentration of 1% DMSO instead of compound.

[2] = test system: hPDE3B; test: In vitro assay PDE3 (SPA, 3H-cAMP); type: biochemical, human; conditions: 0.4 μM cAMP substrate; for hPDE3B Emax: in % (unit assumed)
[3] = molecular target: hPDE10A2 (Homo sapiens, UniProt Q9Y233); test: biochemical; conditions: 60 nM cAMP substrate; for IC50: human clone, read-out: hPDE10A2 or rPDE10A2 pIC50 (converted); for Emax: read-out: hPDE10A2 or rPDE10A2 Emax, human clone
hPDE10A2, sequence (Q9Y233 267-1055): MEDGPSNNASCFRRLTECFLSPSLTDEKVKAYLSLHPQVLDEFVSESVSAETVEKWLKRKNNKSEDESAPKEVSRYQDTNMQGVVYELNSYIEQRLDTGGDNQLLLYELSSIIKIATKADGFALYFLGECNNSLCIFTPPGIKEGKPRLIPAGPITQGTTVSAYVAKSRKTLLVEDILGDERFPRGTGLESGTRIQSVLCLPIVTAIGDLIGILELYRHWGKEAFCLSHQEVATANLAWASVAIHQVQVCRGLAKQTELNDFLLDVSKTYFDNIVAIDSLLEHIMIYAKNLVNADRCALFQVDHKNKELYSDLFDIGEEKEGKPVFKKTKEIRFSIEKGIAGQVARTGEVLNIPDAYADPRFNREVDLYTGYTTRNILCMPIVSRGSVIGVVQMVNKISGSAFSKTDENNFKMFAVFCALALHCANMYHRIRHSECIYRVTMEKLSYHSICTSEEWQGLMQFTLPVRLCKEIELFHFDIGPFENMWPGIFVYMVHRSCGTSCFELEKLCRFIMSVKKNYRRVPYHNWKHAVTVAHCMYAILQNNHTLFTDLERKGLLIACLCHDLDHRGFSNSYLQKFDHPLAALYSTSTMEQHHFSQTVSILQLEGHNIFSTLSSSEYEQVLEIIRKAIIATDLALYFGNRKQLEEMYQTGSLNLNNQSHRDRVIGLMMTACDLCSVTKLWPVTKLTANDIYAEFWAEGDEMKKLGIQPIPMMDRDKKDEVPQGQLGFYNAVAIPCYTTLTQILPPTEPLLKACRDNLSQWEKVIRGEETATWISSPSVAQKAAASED
Procedure: Rat recombinant PDE10A (rPDE10A2) was expressed in Sf9 cells using a recombinant rPDE10A baculovirus construct. Cells were harvested after 48 h of infection and the rPDE10A protein was purified by metal chelate chromatography on Ni-sepharose 6FF. Tested compounds were dissolved and diluted in 100% DMSO to a concentration 100 fold of the final concentration in the assay. Human recombinant PDE10A ([…]) was expressed in Sf9 cells using a recombinant hPDE10A baculovirus that was made and amplified in house. Cells were harvested after 72 h of infection and the hPDE10A protein was purified by metal chelate chromatography on Ni-sepharose. Compound dilutions (0.4 μl) were added in 384 well plates to 20 μl of incubation buffer (50 mM Tris pH 7.8, 8.3 mM MgCl2, 1.7 mM EGTA). 10 μl of rPDE10A or hPDE10A enzyme in incubation buffer was added and the reaction was started by addition of 10 μl substrate to a final concentration of 60 nM cAMP and […] ^3H-cAMP. The reaction was incubated for 60 minutes at room temperature. After incubation, the reaction was stopped with 20 μl of stop solution consisting of 17.8 mg/ml PDE SPA (scintillation proximity assay) beads. After sedimentation of the beads during 30 minutes the radioactivity was measured in a Perkin Elmer Topcount scintillation counter and results were expressed as cpm. For blanc values the enzyme was omitted from the reaction and replaced by incubation buffer. Control values were obtained by addition of a final concentration of 1% DMSO instead of compound. A best fit curve is fitted by a minimum sum of squares method to the plot of % of control value substracted with blanc value versus compound concentration and the half maximal inhibitory concentration (IC50) value is derived from this curve.

[4] = 10 μM cGMP substrate, read-out: hPDE2A pIC50 (converted)

T1 sequence (O00408 whole entry): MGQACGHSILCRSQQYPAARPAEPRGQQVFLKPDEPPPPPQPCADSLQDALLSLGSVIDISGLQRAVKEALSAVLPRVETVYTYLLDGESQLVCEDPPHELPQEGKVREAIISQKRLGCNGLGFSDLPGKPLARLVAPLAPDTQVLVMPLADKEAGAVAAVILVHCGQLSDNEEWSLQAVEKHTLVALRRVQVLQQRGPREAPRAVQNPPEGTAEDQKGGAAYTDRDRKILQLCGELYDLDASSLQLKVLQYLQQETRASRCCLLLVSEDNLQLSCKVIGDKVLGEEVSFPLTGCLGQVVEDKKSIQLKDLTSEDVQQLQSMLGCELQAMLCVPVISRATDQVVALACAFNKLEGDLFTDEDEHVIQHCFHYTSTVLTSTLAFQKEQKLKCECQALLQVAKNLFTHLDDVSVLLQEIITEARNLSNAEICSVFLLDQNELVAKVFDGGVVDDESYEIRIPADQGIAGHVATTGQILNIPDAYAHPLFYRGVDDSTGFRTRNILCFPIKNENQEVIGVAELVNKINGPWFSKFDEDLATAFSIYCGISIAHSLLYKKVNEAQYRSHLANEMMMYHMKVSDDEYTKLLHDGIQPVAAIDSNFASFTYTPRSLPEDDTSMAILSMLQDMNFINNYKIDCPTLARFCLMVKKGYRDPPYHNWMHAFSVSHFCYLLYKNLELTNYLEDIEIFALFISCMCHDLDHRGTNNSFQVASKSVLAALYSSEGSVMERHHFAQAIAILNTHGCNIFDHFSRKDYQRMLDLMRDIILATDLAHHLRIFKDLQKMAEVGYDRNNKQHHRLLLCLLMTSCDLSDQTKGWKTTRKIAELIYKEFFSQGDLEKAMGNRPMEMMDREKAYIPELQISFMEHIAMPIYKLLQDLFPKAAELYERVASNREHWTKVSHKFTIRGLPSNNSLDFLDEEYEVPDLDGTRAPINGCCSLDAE

Row | SMILES | IC50 [1] | Emax ([1]; 10 μM cGMP substrate) | hPDE3B pIC50 [2] | hPDE3B Emax [2] | IC50 [3] | Emax [3] | IC50 [1, 4] | IC50 ([1]; hPDE2A pIC50, 10 μM cGMP substrate)
1 | Cc1cc(CN2CC[C@H](C)[C@@H](c3cc(C(F)F)nc4ncnn34)C2)cc(Cl)n1.Cl [Compound 11] | 3.89 µM | 19% | ~5.4 | 71 | ~10.2 µM | 47% | – | –
2 | C[C@@H]1CCN(Cc2ccc(Cl)c(Cl)c2)C[C@H]1c1cc(C(F)F)nc2ncnn12 [Compound 14] | 0.0562 µM | 102% | <5 | 39 | 2.29 µM | 80% | – | –
3 | Cc1cc(CN2CC[C@@H](C)[C@H](c3cc(C(F)F)nc4ncnn34)C2)ccn1.Cl [Compound 15] | 0.0955 µM | 95% | <4.52 | 17 | ~10 µM | 45% | – | –
4 | Cc1cc(CN2CC[C@H](C)[C@@H](c3cc(C(F)F)nc4ncnn34)C2)ccn1.Cl [Compound 16] | 5.89 µM | 4% | <5 | 23 | > 10 µM | 10% | – | –
5 | CC(C)c1ccc(CN2CC[C@@H](C)[C@H](c3cc(C(F)F)nc4ncnn34)C2)cc1 [Compound 18] | 0.282 µM | 98% | 5.1 | 60 | 7.76 µM | 56% | – | –
6 | C[C@@H]1CCN(Cc2nccc3ccccc23)C[C@H]1c1cc(C(F)F)nc2ncnn12 [Compound 19] | 0.324 µM | 96% | <5 | 35 | 8.51 µM | 58% | – | –
7 | C[C@@H]1CCN(Cc2ccccc2)C[C@H]1c1cc(C(F)F)nc2ncnn12 [Compound 20] | – | 97% | <5 | 23 | > 10 µM | 26% | 0.457 µM | –
8 | C[C@@H]1CCN(Cc2ccc(C#N)cc2)C[C@H]1c1cc(C(F)F)nc2ncnn12 [Compound 21] | 0.468 µM | 97% | <5 | 24 | ~10 µM | 48% | – | –
9 | C[C@@H]1CCN(Cc2cccc(OC(F)F)c2)C[C@H]1c1cc(C(F)F)nc2ncnn12 [Compound 22] | 0.562 µM | 95% | <5 | 42 | 7.76 µM | 61% | – | –
10 | C[C@@H]1CCN(Cc2ccc(OC(F)(F)F)cc2)C[C@H]1c1cc(C(F)F)nc2ncnn12 [Compound 23] | – | 97% | 5.14 | 49 | 6.92 µM | 62% | 0.575 µM | –
11 | C[C@@H]1CCN(Cc2cccc(OC(F)(F)F)c2)C[C@H]1c1cc(C(F)F)nc2ncnn12 [Compound 24] | 0.692 µM | 96% | – | – | 7.24 µM | 58% | – | –
12 | C[C@@H]1CCN(Cc2cccc(C#N)n2)C[C@H]1c1cc(C(F)F)nc2ncnn12 [Compound 25] | – | 92% | <5 | 12 | > 10 µM | 28% | – | 1.02 µM
13 | C[C@@H]1CCN(Cc2ccc(C(F)(F)F)cc2)C[C@H]1c1cc(C(F)F)nc2ncnn12 [Compound 39] | – | 99% | – | – | 6.17 µM | 65% | 0.17 µM | –
